Results as given in ChEMBL document CHEMBL3352018 (J Med Chem, 2014).
Calls of active or inactive are those of the source. The calls are words filed in the database; no cut-off is given here.

Legend:
Format in all cases: cell-based
[1] = target: T1, Sodium-dependent neutral amino acid transporter B(0)AT2 (Homo sapiens, UniProt Q9H2J7); test: Inhibition of eGFP-tagged human B0AT2 expressed in HEK293 cells measured within 10 mins by [3H]proline uptake assay
T1 sequence (Q9H2J7 whole entry): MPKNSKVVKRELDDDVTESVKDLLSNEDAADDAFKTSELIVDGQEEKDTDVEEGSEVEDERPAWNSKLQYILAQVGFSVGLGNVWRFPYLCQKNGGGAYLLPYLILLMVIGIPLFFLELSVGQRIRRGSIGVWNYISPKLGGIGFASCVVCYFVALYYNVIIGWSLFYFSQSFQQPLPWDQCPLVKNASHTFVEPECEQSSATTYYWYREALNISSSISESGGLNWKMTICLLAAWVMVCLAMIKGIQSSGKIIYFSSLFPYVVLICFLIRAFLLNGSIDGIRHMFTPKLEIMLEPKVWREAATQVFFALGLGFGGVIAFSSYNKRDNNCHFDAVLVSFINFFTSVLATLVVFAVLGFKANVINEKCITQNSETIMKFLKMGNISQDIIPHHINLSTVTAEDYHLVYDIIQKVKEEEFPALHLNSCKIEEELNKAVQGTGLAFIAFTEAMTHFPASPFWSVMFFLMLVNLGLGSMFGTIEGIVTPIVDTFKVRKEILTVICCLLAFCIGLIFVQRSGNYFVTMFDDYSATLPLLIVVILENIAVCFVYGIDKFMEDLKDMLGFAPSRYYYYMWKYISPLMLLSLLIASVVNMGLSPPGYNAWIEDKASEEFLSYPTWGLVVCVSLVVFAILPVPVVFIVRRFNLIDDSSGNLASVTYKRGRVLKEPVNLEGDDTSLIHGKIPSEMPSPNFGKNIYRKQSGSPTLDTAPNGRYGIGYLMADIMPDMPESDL

[2] = target: T2, Sodium-dependent neutral amino acid transporter B(0)AT2 (Homo sapiens) (UniProt Q9H2J7); test: Reversible inhibition of eGFP-tagged human B0AT2 expressed in HEK293 cells assessed as reduction in proline-induced inward current at 100 uM measured post drug wash out by patch clamp assay
T2 sequence (whole entry): T1 sequence (Q9H2J7 whole entry)

[3] = target: T2, Sodium-dependent neutral amino acid transporter B(0)AT2 (Homo sapiens); test: Inhibition of eGFP-tagged human B0AT2 expressed in HEK293 cells assessed as reduction in proline-induced inward current at 100 uM by patch clamp assay
[4] = target: T2, Sodium-dependent neutral amino acid transporter B(0)AT2 (Homo sapiens); test: Activation of eGFP-tagged human B0AT2 expressed in HEK293 cells assessed as induction of inward current at 100 uM by patch clamp assay
[5] = target: Histamine H1 receptor (Homo sapiens, UniProt P35367); test: Displacement of [3H]mepyramine from human histamine H1 receptor expressed in Sf9 cells by scintillation counting method
Sequence of Histamine H1 receptor (P35367 whole entry): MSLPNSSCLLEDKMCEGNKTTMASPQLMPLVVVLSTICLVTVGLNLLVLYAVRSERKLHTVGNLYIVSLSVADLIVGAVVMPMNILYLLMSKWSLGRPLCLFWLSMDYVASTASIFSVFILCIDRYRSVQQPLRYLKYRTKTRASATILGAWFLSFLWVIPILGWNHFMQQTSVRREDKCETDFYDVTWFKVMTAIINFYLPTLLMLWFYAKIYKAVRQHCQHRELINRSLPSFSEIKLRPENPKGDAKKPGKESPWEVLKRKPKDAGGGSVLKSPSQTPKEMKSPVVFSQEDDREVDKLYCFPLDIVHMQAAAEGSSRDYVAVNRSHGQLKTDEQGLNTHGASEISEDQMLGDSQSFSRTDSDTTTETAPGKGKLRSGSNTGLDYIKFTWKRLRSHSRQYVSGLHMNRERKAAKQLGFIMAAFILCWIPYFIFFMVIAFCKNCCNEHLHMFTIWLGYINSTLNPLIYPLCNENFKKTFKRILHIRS

[6] = target: T2, Sodium-dependent neutral amino acid transporter B(0)AT2 (Homo sapiens); test: Inhibition of eGFP-tagged human B0AT2 expressed in HEK293 cells at 5 mM measured within 10 mins by [3H]proline uptake assay

Compound	IC50 [1] [µM]	other results
CCSC(=O)N1CCC(=C2c3ccc(Cl)cc3CCc3cccnc32)CC1	5.3	
CCNC(=O)N1CCC(=C2c3ccc(Cl)cc3CCc3cccnc32)CC1	35	
CC(C)[C@@H](N)C(=O)N1CCC(=C2c3ccc(Cl)cc3CCc3cccnc32)CC1	39.1	
CCOC(=O)N1CC=C(C2c3ccc(Cl)cc3CCc3cccnc32)CC1 (stereo unspecified)	14.8	
CC(C)(C)OC(=O)N1CCC(=C2c3ccc(Cl)cc3CCc3cccnc32)CC1	> 80	
CCCS(=O)(=O)N1CCC(=C2c3ccc(Cl)cc3CCc3cccnc32)CC1	> 80	
CC(=O)N1CCC(=C2c3ccc(Cl)cc3CCc3cccnc32)CC1 [SCH-37370]	54.8	
CCOC(=O)N1CCC(=C2c3ccc(Cl)cc3CCc3cc(O)cnc32)CC1	17.6	
CCCOC(=O)N1CCC(=C2c3ccc(Cl)cc3CCc3cccnc32)CC1	4.6	
CCOC(=O)N1CCC(=C2c3ccc(Cl)cc3CCc3cccnc32)CC1 [LORATADINE]	4	inhibition [2]: Active; inhibition [3]: Active; Activity [4]: inactive
COC(=O)N1CCC(=C2c3ccc(Cl)cc3CCc3cccnc32)CC1	19.6	
CCCC(=O)N1CCC(=C2c3ccc(Cl)cc3CCc3cccnc32)CC1	4.9	Ki [5]: 0.171 µM
NCC(=O)N1CCC(=C2c3ccc(Cl)cc3CCc3cccnc32)CC1	22.9	
CCOC(=O)N1CCC(=C2c3ccc(Cl)cc3CCc3cc(OC)cnc32)CC1	4.5	Ki [5]: 1.95 µM
Cc1cncc(CN2CCC(=C3c4ccc(Cl)cc4CCc4cccnc43)CC2)c1 [RUPATADINE]	> 40	
CCOC(=O)N1CCC(=C2c3ccc(Cl)cc3CCc3c(C#N)ccnc32)CC1	> 80	
CCOC(=O)N1CCC(=C2c3ccc(Cl)cc3CCc3c(CO)ccnc32)CC1	18.3	
O=C(Cc1ccccc1)N1CCC(=C2c3ccc(Cl)cc3CCc3cccnc32)CC1	16.1	
O=C(CC1CCCCC1)N1CCC(=C2c3ccc(Cl)cc3CCc3cccnc32)CC1	5.7	Ki [5]: 0.441 µM
CCOC(=O)N1CCC(=C2c3ccc(Cl)cc3CCc3ccc(C(=O)OC)nc32)CC1	12.4	Ki [5]: > 10 µM

Compound	IC50 [1] [µM]	other results
CCOC(=O)N1CCC(=C2c3ccc(Cl)cc3CCc3ccc(CO)nc32)CC1	> 80	
CCCCC(=O)N1CCC(=C2c3ccc(Cl)cc3CCc3cccnc32)CC1	3.4	Ki [5]: 0.147 µM
CC(C)CC(=O)N1CCC(=C2c3ccc(Cl)cc3CCc3cccnc32)CC1	10.8	Ki [5]: 0.289 µM
C/C=C/C(=O)N1CCC(=C2c3ccc(Cl)cc3CCc3cccnc32)CC1	5	Ki [5]: 0.153 µM
CN1CCC(=C2c3ccc(Cl)cc3CCc3cccnc32)CC1	> 80	
NCCC(=O)N1CCC(=C2c3ccc(Cl)cc3CCc3cccnc32)CC1	18.7	
CCCCCC(=O)N1CCC(=C2c3ccc(Cl)cc3CCc3cccnc32)CC1	5.2	
COCC(=O)N1CCC(=C2c3ccc(Cl)cc3CCc3cccnc32)CC1	26.4	
CC(C)COC(=O)N1CCC(=C2c3ccc(Cl)cc3CCc3cccnc32)CC1	7.8	Ki [5]: 1.27 µM
CCC(=O)N1CCC(=C2c3ccc(Cl)cc3CCc3cccnc32)CC1	36	
NC1(C(=O)O)CC2CCC1C2 (stereo unspecified)		inhibition [6]: 80%
C=CCOC(=O)N1CCC(=C2c3ccc(Cl)cc3CCc3cccnc32)CC1	4.9	
O=C(OCc1ccccc1)N1CCC(=C2c3ccc(Cl)cc3CCc3cccnc32)CC1	> 80	
O=C(Oc1ccccc1)N1CCC(=C2c3ccc(Cl)cc3CCc3cccnc32)CC1	> 80	
CCOC(=O)N1CCC(=C2c3ccc(Cl)cc3CCc3ccc(C#N)nc32)CC1	> 80	
CC(C)OC(=O)N1CCC(=C2c3ccc(Cl)cc3CCc3cccnc32)CC1	16.8	
CC(C)C(=O)N1CCC(=C2c3ccc(Cl)cc3CCc3cccnc32)CC1	41.5	
CC(C)C[C@@H](N)C(=O)N1CCC(=C2c3ccc(Cl)cc3CCc3cccnc32)CC1	7.7	Ki [5]: 4.65 µM
Clc1ccc2c(c1)CCc1cccnc1C2=C1CCNCC1 [DESLORATADINE]	172	
